Experimental data taken from the kinase profiling compilation of Christmann-Franck et al. (2016).

Key:
Test in all cases: KINOMEscan competition binding
Conditions in all cases: compound 10.0 µM
IKBKB (human) = IKBKB (human) (UniProt O14920)
ADCK4 (human) = ADCK4 (human) (UniProt Q96D53)
AAK1 (human) = AAK1 (human) (UniProt Q2M2I8)
TNK1 (human) = TNK1 (human) (UniProt Q13470)
RPS6KA4 KD1 (human) = RPS6KA4 KD1 (human) (UniProt O75676)
HCK (human) = HCK (human) (UniProt P08631)
PLK4 (human) = PLK4 (human) (UniProt O00444)
PDPK1 (human) = PDPK1 (human) (UniProt O15530)
PDPK1 (human), sequence (O15530 whole entry, looked up): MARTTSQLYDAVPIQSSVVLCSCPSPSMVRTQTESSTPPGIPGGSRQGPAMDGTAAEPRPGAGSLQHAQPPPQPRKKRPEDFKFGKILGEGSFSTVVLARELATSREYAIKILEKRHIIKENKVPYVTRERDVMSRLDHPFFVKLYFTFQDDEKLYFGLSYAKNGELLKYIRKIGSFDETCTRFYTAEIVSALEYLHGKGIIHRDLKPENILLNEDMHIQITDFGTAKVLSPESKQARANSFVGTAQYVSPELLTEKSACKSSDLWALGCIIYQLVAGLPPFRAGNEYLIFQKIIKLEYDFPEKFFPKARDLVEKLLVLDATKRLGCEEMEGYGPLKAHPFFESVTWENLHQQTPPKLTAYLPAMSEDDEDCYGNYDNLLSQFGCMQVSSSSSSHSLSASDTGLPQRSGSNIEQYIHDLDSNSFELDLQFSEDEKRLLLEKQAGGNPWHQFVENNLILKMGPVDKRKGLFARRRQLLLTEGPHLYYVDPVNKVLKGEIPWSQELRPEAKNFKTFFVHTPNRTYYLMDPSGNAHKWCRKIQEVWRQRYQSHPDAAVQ

TGFBR1 (human) = TGFBR1 (human) (UniProt P36897)
CAMK1G (human) = CAMK1G (human) (UniProt Q96NX5)
IGF1R (human) = IGF1R (human) (UniProt P08069)
ABL2 (human) = ABL2 (human) (UniProt P42684)
EPHB4 (human) = EPHB4 (human) (UniProt P54760)
TEC (human) = TEC (human) (UniProt P42680)
PTK2 (human) = PTK2 (human) (UniProt Q05397)
ZAP70 (human) = ZAP70 (human) (UniProt P43403)
STK25 (human) = STK25 (human) (UniProt O00506)
PRKD3 (human) = PRKD3 (human) (UniProt O94806)
MYO3A (human) = MYO3A (human) (UniProt Q8NEV4)
ITK (human) = ITK (human) (UniProt Q08881)
SRPK3 (human) = SRPK3 (human) (UniProt Q9UPE1)
[1] = molecular target: JAK1 JH2 pseudokinase (human) (UniProt P23458)
JAK1 JH2 pseudokinase (human), sequence (P23458 whole entry, looked up): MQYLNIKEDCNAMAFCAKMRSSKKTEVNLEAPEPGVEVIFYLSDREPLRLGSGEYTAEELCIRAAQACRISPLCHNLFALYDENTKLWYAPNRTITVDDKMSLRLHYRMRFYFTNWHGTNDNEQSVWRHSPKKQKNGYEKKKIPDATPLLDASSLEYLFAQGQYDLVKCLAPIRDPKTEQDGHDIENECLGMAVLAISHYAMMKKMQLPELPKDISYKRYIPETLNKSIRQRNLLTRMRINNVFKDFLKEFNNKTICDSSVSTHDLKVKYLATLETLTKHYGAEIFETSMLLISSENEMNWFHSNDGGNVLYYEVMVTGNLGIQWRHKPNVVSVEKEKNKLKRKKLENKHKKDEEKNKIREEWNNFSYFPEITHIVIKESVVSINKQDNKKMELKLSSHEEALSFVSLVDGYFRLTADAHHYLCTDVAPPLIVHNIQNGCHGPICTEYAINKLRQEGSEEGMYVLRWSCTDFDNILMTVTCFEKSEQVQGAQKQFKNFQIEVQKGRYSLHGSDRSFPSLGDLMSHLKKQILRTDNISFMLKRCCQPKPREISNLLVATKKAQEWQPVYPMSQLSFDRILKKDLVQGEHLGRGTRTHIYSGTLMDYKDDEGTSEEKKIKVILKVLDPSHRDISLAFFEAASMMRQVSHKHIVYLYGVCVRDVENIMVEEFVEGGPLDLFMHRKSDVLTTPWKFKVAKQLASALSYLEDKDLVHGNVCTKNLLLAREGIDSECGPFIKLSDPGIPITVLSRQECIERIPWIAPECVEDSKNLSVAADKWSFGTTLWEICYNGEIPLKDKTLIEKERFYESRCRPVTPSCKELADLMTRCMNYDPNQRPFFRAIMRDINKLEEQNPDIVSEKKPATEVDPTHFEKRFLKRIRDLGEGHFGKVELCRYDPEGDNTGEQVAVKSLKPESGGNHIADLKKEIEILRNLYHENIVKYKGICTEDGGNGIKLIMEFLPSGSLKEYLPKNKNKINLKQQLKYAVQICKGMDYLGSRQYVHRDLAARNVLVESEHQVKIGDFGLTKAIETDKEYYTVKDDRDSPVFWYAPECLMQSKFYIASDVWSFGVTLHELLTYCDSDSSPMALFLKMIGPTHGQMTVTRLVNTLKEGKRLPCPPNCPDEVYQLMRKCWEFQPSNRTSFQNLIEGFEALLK

AXL (human) = AXL (human) (UniProt P30530)
AXL (human), sequence (P30530 whole entry, looked up): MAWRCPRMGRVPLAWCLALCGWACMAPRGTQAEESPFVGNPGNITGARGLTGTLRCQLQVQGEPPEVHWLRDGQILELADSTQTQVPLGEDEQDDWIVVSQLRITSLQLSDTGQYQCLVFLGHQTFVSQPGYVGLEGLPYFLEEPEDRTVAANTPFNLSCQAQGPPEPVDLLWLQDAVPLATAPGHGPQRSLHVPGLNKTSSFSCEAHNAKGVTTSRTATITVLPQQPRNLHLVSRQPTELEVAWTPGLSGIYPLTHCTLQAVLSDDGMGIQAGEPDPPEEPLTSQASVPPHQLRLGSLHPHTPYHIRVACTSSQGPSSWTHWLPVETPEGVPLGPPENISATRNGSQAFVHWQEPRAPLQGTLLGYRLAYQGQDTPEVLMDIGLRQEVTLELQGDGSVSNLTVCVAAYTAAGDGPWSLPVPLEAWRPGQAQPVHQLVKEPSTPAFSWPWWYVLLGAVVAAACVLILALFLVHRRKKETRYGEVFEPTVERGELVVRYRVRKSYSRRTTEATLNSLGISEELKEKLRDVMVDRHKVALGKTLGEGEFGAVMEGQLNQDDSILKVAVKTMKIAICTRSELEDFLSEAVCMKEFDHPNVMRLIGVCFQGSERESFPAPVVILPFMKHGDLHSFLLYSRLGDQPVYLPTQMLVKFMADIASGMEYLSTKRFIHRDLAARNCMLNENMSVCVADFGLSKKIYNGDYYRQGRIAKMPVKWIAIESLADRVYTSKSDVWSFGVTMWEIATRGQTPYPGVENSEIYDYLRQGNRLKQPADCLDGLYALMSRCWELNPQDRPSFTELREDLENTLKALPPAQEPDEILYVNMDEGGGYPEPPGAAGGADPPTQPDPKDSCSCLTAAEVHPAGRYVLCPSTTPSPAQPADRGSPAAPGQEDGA

[2] = tested on: FLT3 (human), P36888 [ITD]
PRKCD (human) = PRKCD (human) (UniProt Q05655)
NEK1 (human) = NEK1 (human) (UniProt Q96PY6)
LIMK1 (human) = LIMK1 (human) (UniProt P53667)
WEE2 (human) = WEE2 (human) (UniProt P0C1S8)
PKN1 (human) = PKN1 (human) (UniProt Q16512)
PKN1 (human), sequence (Q16512 whole entry, looked up): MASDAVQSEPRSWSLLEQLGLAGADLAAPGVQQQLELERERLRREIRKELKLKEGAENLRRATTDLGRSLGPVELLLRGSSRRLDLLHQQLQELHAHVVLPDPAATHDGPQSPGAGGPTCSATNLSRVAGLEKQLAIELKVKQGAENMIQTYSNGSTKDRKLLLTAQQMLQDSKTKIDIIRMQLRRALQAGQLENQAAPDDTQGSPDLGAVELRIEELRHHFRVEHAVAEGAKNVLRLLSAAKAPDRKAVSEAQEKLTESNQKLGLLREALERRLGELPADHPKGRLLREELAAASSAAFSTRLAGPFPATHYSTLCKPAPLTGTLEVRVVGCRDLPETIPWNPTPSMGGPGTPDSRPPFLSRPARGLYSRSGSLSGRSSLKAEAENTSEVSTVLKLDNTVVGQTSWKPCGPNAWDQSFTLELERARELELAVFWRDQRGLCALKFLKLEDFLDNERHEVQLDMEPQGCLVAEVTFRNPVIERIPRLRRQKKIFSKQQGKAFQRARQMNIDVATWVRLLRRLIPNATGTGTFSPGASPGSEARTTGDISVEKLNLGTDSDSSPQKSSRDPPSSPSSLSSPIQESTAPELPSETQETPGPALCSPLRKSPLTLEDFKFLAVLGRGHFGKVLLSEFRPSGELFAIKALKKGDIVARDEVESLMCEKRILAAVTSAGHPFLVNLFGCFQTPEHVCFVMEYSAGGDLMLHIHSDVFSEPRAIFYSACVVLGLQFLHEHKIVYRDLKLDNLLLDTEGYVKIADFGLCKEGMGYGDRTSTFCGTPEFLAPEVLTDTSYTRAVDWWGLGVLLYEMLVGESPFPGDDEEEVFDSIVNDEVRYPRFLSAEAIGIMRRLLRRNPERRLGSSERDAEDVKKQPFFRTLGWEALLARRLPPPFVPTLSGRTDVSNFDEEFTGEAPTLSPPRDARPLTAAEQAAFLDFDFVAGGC

RPS6KA2 KD2 (human) = RPS6KA2 KD2 (human) (UniProt Q15349)
RPS6KA2 KD2 (human), sequence (Q15349 whole entry, looked up): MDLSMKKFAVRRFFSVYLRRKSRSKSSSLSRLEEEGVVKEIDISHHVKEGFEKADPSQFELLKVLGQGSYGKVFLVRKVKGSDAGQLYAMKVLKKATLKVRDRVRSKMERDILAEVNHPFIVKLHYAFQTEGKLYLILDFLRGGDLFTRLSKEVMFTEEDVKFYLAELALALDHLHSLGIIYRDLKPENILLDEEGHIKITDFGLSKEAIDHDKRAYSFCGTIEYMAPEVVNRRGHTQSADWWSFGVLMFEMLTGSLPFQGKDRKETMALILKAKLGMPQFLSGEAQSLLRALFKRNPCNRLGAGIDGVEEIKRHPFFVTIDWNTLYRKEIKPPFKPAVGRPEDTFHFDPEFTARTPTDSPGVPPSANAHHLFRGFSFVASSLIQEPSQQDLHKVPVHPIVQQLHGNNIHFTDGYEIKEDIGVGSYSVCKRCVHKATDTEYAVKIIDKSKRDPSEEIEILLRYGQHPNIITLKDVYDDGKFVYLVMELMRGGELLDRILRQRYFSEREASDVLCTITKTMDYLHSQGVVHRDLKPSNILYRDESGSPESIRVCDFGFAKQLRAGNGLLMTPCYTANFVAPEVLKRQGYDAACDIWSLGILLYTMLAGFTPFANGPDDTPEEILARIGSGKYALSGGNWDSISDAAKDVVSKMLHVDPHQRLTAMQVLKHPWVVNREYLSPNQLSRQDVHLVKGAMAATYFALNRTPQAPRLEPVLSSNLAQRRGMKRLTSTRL

MARK4 (human) = MARK4 (human) (UniProt Q96L34)
RIOK3 (human) = RIOK3 (human) (UniProt O14730)
ACVR1 (human) = ACVR1 (human) (UniProt Q04771)
ACVR1 (human), sequence (Q04771 whole entry, looked up): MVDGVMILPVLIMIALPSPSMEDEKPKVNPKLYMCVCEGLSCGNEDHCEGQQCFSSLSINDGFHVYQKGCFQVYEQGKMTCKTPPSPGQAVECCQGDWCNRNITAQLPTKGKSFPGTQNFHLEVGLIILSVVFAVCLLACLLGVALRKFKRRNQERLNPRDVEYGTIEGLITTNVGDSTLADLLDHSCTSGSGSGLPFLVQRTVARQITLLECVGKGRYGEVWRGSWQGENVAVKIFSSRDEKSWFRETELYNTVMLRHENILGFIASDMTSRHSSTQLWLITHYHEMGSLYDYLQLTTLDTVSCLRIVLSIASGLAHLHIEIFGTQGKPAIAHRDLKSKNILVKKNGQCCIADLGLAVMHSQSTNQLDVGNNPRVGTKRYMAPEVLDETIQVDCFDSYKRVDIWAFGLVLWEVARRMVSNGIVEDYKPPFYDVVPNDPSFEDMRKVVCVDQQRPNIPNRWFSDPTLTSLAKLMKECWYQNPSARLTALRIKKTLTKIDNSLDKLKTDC

FGFR4 (human) = FGFR4 (human) (UniProt P22455)
PKN2 (human) = PKN2 (human) (UniProt Q16513)
STK32C (human) = STK32C (human) (UniProt Q86UX6)
EPHA7 (human) = EPHA7 (human) (UniProt Q15375)
STK3 (human) = STK3 (human) (UniProt Q13188)
PKMYT1 (human) = PKMYT1 (human) (UniProt Q99640)
ULK2 (human) = ULK2 (human) (UniProt Q8IYT8)

## C[C@@H](Oc1cc(-n2cnc3ccc(CN4CCN(C)CC4)cc32)sc1C(N)=O)c1ccccc1C(F)(F)F
IKBKB (human)
  kinase still bound, per cent of control: 74%
ADCK4 (human)
  kinase still bound, per cent of control: 58%
AAK1 (human)
  kinase still bound, per cent of control: 40%
TNK1 (human)
  kinase still bound, per cent of control: 87%
RPS6KA4 KD1 (human)
  kinase still bound, per cent of control: 68%
HCK (human)
  kinase still bound, per cent of control: 100%
PLK4 (human)
  kinase still bound, per cent of control: 97%
PDPK1 (human)
  kinase still bound, per cent of control: 100%
TGFBR1 (human)
  kinase still bound, per cent of control: 99%
CAMK1G (human)
  kinase still bound, per cent of control: 58%
IGF1R (human)
  kinase still bound, per cent of control: 100%
ABL2 (human)
  kinase still bound, per cent of control: 90%
EPHB4 (human)
  kinase still bound, per cent of control: 100%
TEC (human)
  kinase still bound, per cent of control: 91%
PTK2 (human)
  kinase still bound, per cent of control: 99%
ZAP70 (human)
  kinase still bound, per cent of control: 69%
STK25 (human)
  kinase still bound, per cent of control: 83%
PRKD3 (human)
  kinase still bound, per cent of control: 12%
MYO3A (human)
  kinase still bound, per cent of control: 78%
ITK (human)
  kinase still bound, per cent of control: 89%
SRPK3 (human)
  kinase still bound, per cent of control: 9.6%
[1]
  kinase still bound, per cent of control: 92%
AXL (human)
  kinase still bound, per cent of control: 41%
[2]
  kinase still bound, per cent of control: 31%
PRKCD (human)
  kinase still bound, per cent of control: 22%
NEK1 (human)
  kinase still bound, per cent of control: 41%
LIMK1 (human)
  kinase still bound, per cent of control: 100%
WEE2 (human)
  kinase still bound, per cent of control: 83%
PKN1 (human)
  kinase still bound, per cent of control: 46%
RPS6KA2 KD2 (human)
  kinase still bound, per cent of control: 74%
MARK4 (human)
  kinase still bound, per cent of control: 100%
RIOK3 (human)
  kinase still bound, per cent of control: 6.6%
ACVR1 (human)
  kinase still bound, per cent of control: 100%
FGFR4 (human)
  kinase still bound, per cent of control: 100%
PKN2 (human)
  kinase still bound, per cent of control: 6%
STK32C (human)
  kinase still bound, per cent of control: 100%
EPHA7 (human)
  kinase still bound, per cent of control: 83%
STK3 (human)
  kinase still bound, per cent of control: 74%
PKMYT1 (human)
  kinase still bound, per cent of control: 100%

## CCC(=O)N1CCN(c2ccc(-n3c(=O)ccc4cnc5ccc(-c6cnc7ccccc7c6)cc5c43)cc2C(F)(F)F)CC1
IKBKB (human)
  kinase still bound, per cent of control: 61%
ADCK4 (human)
  kinase still bound, per cent of control: 15%
AAK1 (human)
  kinase still bound, per cent of control: 75%
TNK1 (human)
  kinase still bound, per cent of control: 6.8%
RPS6KA4 KD1 (human)
  kinase still bound, per cent of control: 100%
HCK (human)
  kinase still bound, per cent of control: 77%
PLK4 (human)
  kinase still bound, per cent of control: 100%
PDPK1 (human)
  kinase still bound, per cent of control: 100%
TGFBR1 (human)
  kinase still bound, per cent of control: 70%
CAMK1G (human)
  kinase still bound, per cent of control: 74%
IGF1R (human)
  kinase still bound, per cent of control: 94%
ABL2 (human)
  kinase still bound, per cent of control: 99%
EPHB4 (human)
  kinase still bound, per cent of control: 85%
TEC (human)
  kinase still bound, per cent of control: 99%
PTK2 (human)
  kinase still bound, per cent of control: 14%
ZAP70 (human)
  kinase still bound, per cent of control: 100%
STK25 (human)
  kinase still bound, per cent of control: 84%
PRKD3 (human)
  kinase still bound, per cent of control: 100%
MYO3A (human)
  kinase still bound, per cent of control: 100%
ITK (human)
  kinase still bound, per cent of control: 100%
[1]
  kinase still bound, per cent of control: 76%
AXL (human)
  kinase still bound, per cent of control: 46%
ULK2 (human)
  kinase still bound, per cent of control: 75%
[2]
  kinase still bound, per cent of control: 29%
PRKCD (human)
  kinase still bound, per cent of control: 82%
NEK1 (human)
  kinase still bound, per cent of control: 89%
LIMK1 (human)
  kinase still bound, per cent of control: 15%
WEE2 (human)
  kinase still bound, per cent of control: 100%
PKN1 (human)
  kinase still bound, per cent of control: 92%
RPS6KA2 KD2 (human)
  kinase still bound, per cent of control: 85%
MARK4 (human)
  kinase still bound, per cent of control: 100%
RIOK3 (human)
  kinase still bound, per cent of control: 90%
ACVR1 (human)
  kinase still bound, per cent of control: 28%
FGFR4 (human)
  kinase still bound, per cent of control: 21%
PKN2 (human)
  kinase still bound, per cent of control: 65%
STK32C (human)
  kinase still bound, per cent of control: 100%
EPHA7 (human)
  kinase still bound, per cent of control: 98%
STK3 (human)
  kinase still bound, per cent of control: 24%
PKMYT1 (human)
  kinase still bound, per cent of control: 52%

## CC[C@@H]1C(=O)N(C)c2cnc(Nc3ccc(C(=O)NC4CCN(C)CC4)cc3OC)nc2N1C1CCCC1
IKBKB (human)
  kinase still bound, per cent of control: 100%
ADCK4 (human)
  kinase still bound, per cent of control: 100%
AAK1 (human)
  kinase still bound, per cent of control: 100%
TNK1 (human)
  kinase still bound, per cent of control: 32%
RPS6KA4 KD1 (human)
  kinase still bound, per cent of control: 100%
HCK (human)
  kinase still bound, per cent of control: 100%
PLK4 (human)
  kinase still bound, per cent of control: 100%
PDPK1 (human)
  kinase still bound, per cent of control: 100%
TGFBR1 (human)
  kinase still bound, per cent of control: 100%
CAMK1G (human)
  kinase still bound, per cent of control: 100%
IGF1R (human)
  kinase still bound, per cent of control: 100%
ABL2 (human)
  kinase still bound, per cent of control: 100%
EPHB4 (human)
  kinase still bound, per cent of control: 100%
TEC (human)
  kinase still bound, per cent of control: 100%
PTK2 (human)
  kinase still bound, per cent of control: 2.4%
ZAP70 (human)
  kinase still bound, per cent of control: 100%
STK25 (human)
  kinase still bound, per cent of control: 100%
PRKD3 (human)
  kinase still bound, per cent of control: 10%
MYO3A (human)
  kinase still bound, per cent of control: 100%
ITK (human)
  kinase still bound, per cent of control: 100%
SRPK3 (human)
  kinase still bound, per cent of control: 100%
[1]
  kinase still bound, per cent of control: 100%
AXL (human)
  kinase still bound, per cent of control: 100%
ULK2 (human)
  kinase still bound, per cent of control: 100%
[2]
  kinase still bound, per cent of control: 100%
PRKCD (human)
  kinase still bound, per cent of control: 100%
NEK1 (human)
  kinase still bound, per cent of control: 100%
LIMK1 (human)
  kinase still bound, per cent of control: 100%
WEE2 (human)
  kinase still bound, per cent of control: 100%
PKN1 (human)
  kinase still bound, per cent of control: 100%
RPS6KA2 KD2 (human)
  kinase still bound, per cent of control: 7.2%
MARK4 (human)
  kinase still bound, per cent of control: 100%
RIOK3 (human)
  kinase still bound, per cent of control: 100%
ACVR1 (human)
  kinase still bound, per cent of control: 100%
FGFR4 (human)
  kinase still bound, per cent of control: 100%
STK32C (human)
  kinase still bound, per cent of control: 100%
EPHA7 (human)
  kinase still bound, per cent of control: 100%
PKMYT1 (human)
  kinase still bound, per cent of control: 100%
